Legend:
[1] = system: human embryonic stem cells; assay: Survival of dissociated human embryonic stem cells one day after plating on precoated dishes; format: cell-based; settings: single cell suspension, O3 medium, 30 Kcells/cm^2
Excerpt: In other aspects, the present disclosure provides a new material, isolated laminin-521, which permits human embryonic stem cell survival after dissociation into single cell suspension. The stem cells were dissociated into single cell suspension by Trypsin-EDTA treatment, pelleted by centrifugation, resuspended into O3 medium, filtered through a 40 μm sieve, and plated at a density of 30 Kcells/cm^2 on cell culture dishes precoated by either isolated laminin-521, laminin-511, or Matrigel. After one day in culture, the cells plated on Matrigel died, as is known in the art.

[2] = system: Oct4, Nanog, SSEA4, PAX6, SOX17, SOX7; assay: Expression of pluripotency and differentiation markers (immunofluorescence, RT-PCR, FACS); format: cell-based, human; settings: similar to cells on Matrigel passed as small clumps
Experimental: For immunofluorescence studies, ES cells were cultured and fixed in 8-well slide chambers (BD Biosciences) or 96-well plate wells by 4% paraformaldehyde, permeabilized by 0.1% Triton-X and blocked by 10% bovine fetal serum (GIBCO Invitrogen Corporation) in phosphate-saline buffer (PBS) containing 0.1% Tween-20 (Sigma-Aldrich, St. Louis, http://www.sigmaaldrich.com) for one hour. Incubation with primary antibody was performed for 1.5 hours at room temperature. Incubation with secondary antibody and 4,6-diamidino-2-phenylindole (DAPI, Molecular Probes) was performed for 40 minutes. Between incubations, the specimens were washed with 0.1% Tween-20 in PBS buffer three to five times. Specimens were preserved in a fluorescence mounting medium (Dako, Glostrup, Denmark, http://www.dako.com), and observed under a fluorescence microscope (Leica, Heerbrugg, Switzerland, http://www.leica.com).
Total RNA was isolated using Absolutely RNA Microprep Kit (Stratagene, La Jolla Calif., www.stratagene.com) according to the manufacturer's instructions. cDNA was synthesized using 0.2 μg of total RNA in 20 μl reaction mixture, containing oligo(dT)12-18 primers and Superscript II reverse transcriptase (GIBCO Invitrogen Corporation), according to the manufacturer's instructions. […] All data was analyzed with 7300 System SDS Software v 1.4. […]

human ES cells [3] = assay: Cell adhesion assay, 1 hour (Example 1); format: cell-based; settings: O3 medium without any additives, without Y-27632
Experimental: Ninety-six-well tissue cell culture plates were coated overnight at 4° C. with sterile solutions of the ECM proteins mouse LN-111 (Invitrogen), human recombinant LN-511, and human recombinant LN-521, all at a concentration of 30 μg/ml (5 μg/cm^2). For control cells, BD Matrigel™ hESC qualified (BD Biosciences) was used according to the manufacturer's instructions.
The assay was performed as described (Extracellular Matrix Protocols, 2000). Briefly, 96-well plates were coated by extracellular matrix proteins as described above and blocked by O3 medium containing bovine serum albumin. The ES cells were plated at a cell density of 600 cell/mm^2 upon extracellular matrix-coated plates and were left to adhere for either 1 hour or 1 day at the cell incubator. Non-adherent cells were washed away, and adherent cells were fixed for 20 min by 5% glutaraldehyde, stained by 0.1% Crystal Violet.

hES cell lines = assay: Karyotyping; format: cell-based, human; settings: HS181 12 passages and H1 10 passages in O3 medium; H1 7 passages in TeSR2
Experimental: Karyotyping of the cell lines was carried out using standard Q-banding techniques. Samples of cells were treated with colcemid KaryoMAX (0.1 μg/ml; Gibco Invitrogen Corporation) for up to 4 hours, followed by dissociation with Trypsin/EDTA solution (Gibco Invitrogen Corporation). The cells were pelleted via centrifugation and re-suspended in pre-warmed 0.0375 M KCl hypotonic solution and incubated for 10 minutes. Following centrifugation, the cells were resuspended in fixative (3:1 methanol:acetic acid). Metaphase spreads were prepared on glass microscope slides and G-banded by brief exposure to trypsin and stained with 4:1 Gurr's/Leishmann's stain (Sigma-Aldrich Co.). A minimum of 10 metaphase spreads were analyzed and additional 20 were counted.

OCT4 = assay: FACS analysis for OCT4; format: cell-based, human; settings: after several single cell suspension passages, O3 medium
Experimental: OCT4 expression was analyzed as described in Ludwig, T. E. et al. Derivation of human embryonic stem cells in defined conditions. Nat. Biotechnol. 24, 185-187 (2006). Cells were run on FACSCalibur Flow Cytometer (Becton Dickinson). Data were analyzed with CellQuest software (Becton Dickinson).

human ES cells [4] = assay: Long-term culture with single cell dissociation passaging (Example 1); format: cell-based
Experimental: Human ES cells were cultured on r-laminin-521-coated laboratory dishes in chemically defined O3 medium (described in Rodin et al., Nature Biotechnol., vol. 28, pp. 611-615 (2010)) at 37° C. in 5% CO2. Cells were routinely passed once every 10-12 days by exposure to Trypsin-EDTA solution (GIBCO Invitrogen) for 5 minutes at 37° C. They were then gently pipetted to break into single-cell suspension and defined trypsin inhibitor (GIBCO Invitrogen) was added. The cell suspension was centrifuged […], the supernatant discarded, the cell pellet resuspended in prewarmed O3 medium, and cells were then passed through a 40 μm sieve. After that cells were plated on new r-laminin-521-coated dishes at a concentration 30 Kcells/cm^2 (1:25-1:30 split ratio). Cells were fed once a day with fresh medium prewarmed in an incubator for 1 hour, except for the first day after a passage, when only a few drops of fresh medium were added. Control cells of the same line were cultured on Matrigel (BD Biosciences) in O3 medium as described in Rodin et al., Nature Biotechnol., vol. 28, pp. 611-615 (2010). Control cells were passaged in pieces.

Q: “LN-521: protein formed by joining α5, β2 and γ1 laminin chains; human recombinant, produced in HEK293 cells” was tested. Which “survival after one day in culture” value [1] did it give?
A: The value was “survived”.

Q: What about the “expression of pluripotency markers Oct4, Nanog, and SSEA4” value [2] of the same substance?
A: The value was “stable expression levels”.

Q: And the “adhesion of human ES cells at 1 hour” value (human ES cells [3])?
A: The value was “roughly the same”.

Q: And the karyotype (hES cell lines)?
A: Its karyotype is “normal”.

Q: What about the “percentage of Oct4 positive (pluripotent) cells compared with Matrigel” value (OCT4) of the same substance?
A: Its value is “much higher percentage”.

Q: And the “increase in the number of cells versus time compared with Matrigel” value (human ES cells [4]; LN-521 single cell passaging vs Matrigel clumps)?
A: Its value is “much faster rate”.

Q: What about the “passages with robust proliferation at stable and high rate” value (human ES cells [4]; single cell suspension passaging every 10-12 days, 1:25 to 1:30 ratios (3 months)) of the same substance?
A: Its value is “at least 9 passages”.

Source: US10138292B2, “Cell culture medium” (BIOLAMINA AB, priority 2010, dated 2018)
